Experimental data taken from patent publication US9211261B2, “Immediate release dosage forms containing solid drug dispersions” (Bend Research, Inc., priority 2002, dated 2015).

Experiment: In vitro dissolution test of Drug 1 from tablets (simulated intestinal buffer pH 6.8 with 0.5 wt % sodium lauryl sulfate)
Format: physicochemical
Settings: 120 mgA tablet of Example 2, 900 mL pH 6.8 buffer + 0.5 wt % SLS, 37° C., 100 rpm, average of two tests
Method: An in vitro test may be used to determine whether a dosage form provides a release profile within the scope of the present invention. In vitro tests are well known in the art. One example is a so-called “direct” test, where the dosage form is placed into a stirred USP type 2 dissoette flask containing 900 mL of a dissolution medium maintained at 37° C., such as a buffer solution simulating a gastric environment (10 mM HCl, 100 mM NaCl, pH 2.0, 261 mOsm/kg) or the PBS or MFD solutions previously described. One skilled in the art will understand that in such tests the dissolution medium should act as a sink for the drug in the dosage form. By “sink” is meant that the composition and volume of the dissolution medium is sufficient such that substantially all of the drug in the dosage form will dissolve into the dissolution medium within about 4 hours or less. In some cases a surfactant, such as sodium lauryl sulfate or other excipients may be added to the dissolution medium to ensure the dissolution medium acts as a sink for the drug. The dosage form is placed in a wire support to keep the dosage form off of the bottom of the flask, so that all of its surfaces are exposed to the dissolution medium, and the medium is stirred using paddles that rotate at a rate of 50 rpm. Samples of the dissolution medium are taken at periodic intervals using a VanKel VK8000 autosampling dissoette with automatic receptor solution replacement. The concentration of dissolved drug in the dissolution medium is then determined by High Performance Liquid Chromatography (HPLC), by comparing UV absorbance of samples to the absorbance of drug standards. The mass of dissolved drug in the dissolution medium is then calculated from the concentration of drug in the medium and the volume of the medium, which value is used to calculate the actual amount of drug released from the dosage form, taking into consideration the mass of drug originally present in the dosage form.
Drug 1 dissolution from the tablets of Example 2 was measured using an in vitro test. First, a dissolution medium consisting of a simulated intestinal buffer solution was made by dissolving 6.8 g of KH2PO4 in 750 mL of deionized water with 85 mL 0.2M NaOH. Water was added for a final volume of 1 L. The pH was adjusted to 6.8±0.1 using 0.2M NaOH. Next, 0.5 wt % sodium lauryl sulfate was added to the buffer. A 900 mL sample of this solution was added to each of two vessels in a VanKel dissolution testing apparatus with automatic sampling. The solution temperature was maintained at 37° C., and stirred with a paddle speed of 100 rpm. This dissolution medium acted as a sink for the 120 mgA tablets. After equilibration to 37° C., a tablet of Example 2 was added to each vessel containing the buffer solution, resulting in a Drug 1 concentration of 130 μgA/mL, assuming all of the drug had dissolved. Samples were collected at 5, 15, 20, 35, 45, 60, 75, 90, 120 and 180 minutes, and then analyzed by HPLC using a Waters Symmetry C8 column. The mobile phase consisted of 0.2 vol % H3PO4 (in water)/methanol in the ratio of 15/85 (vol/vol). Drug 1 concentration was calculated by comparing UV absorbance at 256 nm to the absorbance of Drug 1 standards.

## CCOC(=O)N1c2ccc(C(F)(F)F)cc2C(N(Cc2cc(C(F)(F)F)cc(C(F)(F)F)c2)C(=O)OC)CC1CC (stereo not shown) [Drug 1, 4-[(3,5-bis-trifluoromethyl-benzyl)-methoxycarbonyl-amino]-2-ethyl-6-trifluoromethyl-3,4-dihydro-2H-quinoline-1-carboxylic acid ethyl ester]
Time 0 min
  Drug 1 Concentration: 0 μgA/mL
  Drug 1 Released: 0 wt %
Time 5 min
  Drug 1 Concentration: 49 μgA/mL
  Drug 1 Released: 37 wt %
Time 15 min
  Drug 1 Concentration: 114 μgA/mL
  Drug 1 Released: 87 wt %
Time 20 min
  Drug 1 Concentration: 123 μgA/mL
  Drug 1 Released: 94 wt %
Time 35 min
  Drug 1 Concentration: 126 μgA/mL
  Drug 1 Released: 96 wt %
Time 45 min
  Drug 1 Concentration: 126 μgA/mL
  Drug 1 Released: 96 wt %
Time 60 min
  Drug 1 Concentration: 125 μgA/mL
  Drug 1 Released: 95 wt %
Time 75 min
  Drug 1 Concentration: 128 μgA/mL
  Drug 1 Released: 98 wt %
Time 90 min
  Drug 1 Concentration: 127 μgA/mL
  Drug 1 Released: 97 wt %
Time 120 min
  Drug 1 Concentration: 127 μgA/mL
  Drug 1 Released: 97 wt %
Time 180 min
  Drug 1 Concentration: 131 μgA/mL
  Drug 1 Released: 100 wt %
